Counter-ions that a name gives are not always drawn.

The test system of test [1] is pre-ejaculated epididymal murine spermatozoa. Description: Sperm capacitation measured with chlorotetracycline (CTC). Conditions: for number of capacitated sperm: P<0.001. The class given is cell-based, mouse. Here is the method: The extent of capacitation was measured using chlorotetracycline (CTC) and the degree of capacitation was assessed in control and adenosine-5′-triphosphate (ATP)-treated samples. All data is expressed as mean+s.e.mean, n=3, ***=P<0.001, Student's t-test).
Sperm suspensions were prepared by releasing the contents of mouse epididymides from 3 PDE11 knockout (KO) and 3 wild type (WT) mice into Tyrodes media. The extent of capacitation was measured using chlorotetracycline (CTC), 750 μM for 15 min at 37° C. The patterns of CTC fluorescence were observed under microscopy (Reference: Fraser, L. R. & Herod, J. E. Expression of capacitation-dependent changes in chlortetracycline fluorescence patterns in mouse spermatozoa requires a suitable glycolysable substrate. J. Reprod. Fert., 1990; 88(2): 611-21). Patterns reflected the functional state of spermatozoa, i.e. capacitated, uncapacitated and acrosome loss.

For test [2], the system named is recombinant human PDE7. The test can be described thus: PDE inhibition SPA assay, PDE7. Particulars: geometric mean of at least 3 determinations; substrate <= 1/3 Km. The class given is biochemical.
In test [3] the target is T1, PDE6 isolated from bovine retina (Bos taurus, UniProt P11541+P23439).
T1 construct: PDE6 was isolated from bovine retina; from tissue; host or cells: bovine retina
T1 sequence (P11541 2-856 limits assumed): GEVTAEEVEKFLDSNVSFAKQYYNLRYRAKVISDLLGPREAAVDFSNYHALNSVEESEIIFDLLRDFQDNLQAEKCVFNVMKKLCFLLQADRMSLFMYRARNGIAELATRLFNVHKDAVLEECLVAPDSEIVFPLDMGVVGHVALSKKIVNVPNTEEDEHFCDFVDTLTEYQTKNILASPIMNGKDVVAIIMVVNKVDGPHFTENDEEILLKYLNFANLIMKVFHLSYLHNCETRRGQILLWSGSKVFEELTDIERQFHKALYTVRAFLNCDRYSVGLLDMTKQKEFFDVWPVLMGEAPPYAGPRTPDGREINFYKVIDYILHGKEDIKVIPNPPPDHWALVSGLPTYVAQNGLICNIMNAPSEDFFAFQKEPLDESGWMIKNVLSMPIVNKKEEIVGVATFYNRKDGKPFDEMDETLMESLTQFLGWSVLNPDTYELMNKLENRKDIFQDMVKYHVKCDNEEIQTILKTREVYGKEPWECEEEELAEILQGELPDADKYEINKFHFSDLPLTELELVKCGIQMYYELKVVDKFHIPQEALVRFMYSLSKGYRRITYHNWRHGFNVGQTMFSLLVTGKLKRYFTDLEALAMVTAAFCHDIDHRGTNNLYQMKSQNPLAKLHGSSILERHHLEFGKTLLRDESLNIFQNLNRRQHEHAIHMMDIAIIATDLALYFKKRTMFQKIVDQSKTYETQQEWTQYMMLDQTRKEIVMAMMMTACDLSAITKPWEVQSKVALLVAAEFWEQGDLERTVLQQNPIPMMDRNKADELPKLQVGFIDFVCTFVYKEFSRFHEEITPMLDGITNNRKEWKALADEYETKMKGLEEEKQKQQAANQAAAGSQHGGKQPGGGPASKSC
T1 sequence (P23439 2-850 limits assumed): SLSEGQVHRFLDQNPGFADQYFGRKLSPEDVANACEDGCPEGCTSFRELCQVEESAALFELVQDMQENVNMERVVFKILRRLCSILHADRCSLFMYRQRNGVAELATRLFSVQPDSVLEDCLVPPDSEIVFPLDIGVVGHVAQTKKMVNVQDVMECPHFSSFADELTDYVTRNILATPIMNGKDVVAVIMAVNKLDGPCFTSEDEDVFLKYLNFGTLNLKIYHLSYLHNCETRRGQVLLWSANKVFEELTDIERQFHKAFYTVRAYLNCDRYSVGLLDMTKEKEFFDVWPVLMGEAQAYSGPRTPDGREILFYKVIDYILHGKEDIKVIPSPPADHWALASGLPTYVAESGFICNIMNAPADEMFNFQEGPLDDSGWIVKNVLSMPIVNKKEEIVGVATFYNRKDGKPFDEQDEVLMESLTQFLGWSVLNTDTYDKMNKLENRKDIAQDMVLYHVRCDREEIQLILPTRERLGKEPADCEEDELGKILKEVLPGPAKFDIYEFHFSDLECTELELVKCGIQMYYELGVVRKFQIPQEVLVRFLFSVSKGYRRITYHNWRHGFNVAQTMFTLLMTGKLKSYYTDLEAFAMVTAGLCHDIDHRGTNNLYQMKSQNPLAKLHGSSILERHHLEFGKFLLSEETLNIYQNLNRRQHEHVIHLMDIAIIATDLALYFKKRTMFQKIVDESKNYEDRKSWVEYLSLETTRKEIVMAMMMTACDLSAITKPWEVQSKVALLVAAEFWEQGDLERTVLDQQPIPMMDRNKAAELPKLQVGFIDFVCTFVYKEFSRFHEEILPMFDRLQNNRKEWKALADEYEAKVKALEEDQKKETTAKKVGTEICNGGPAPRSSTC
Description: PDE inhibition SPA assay, PDE6. The class given is biochemical.

Test [4] deals with recombinant human PDE8. The test can be described thus: PDE inhibition SPA assay, PDE8. Particulars: geometric mean of at least 3 determinations; substrate <= 1/3 Km. The format is biochemical.

For the compound `Nc1ncnc2c1ncn2[C@@H]1O[C@H](COP(=O)(O)OP(=O)(O)OP(=O)(O)O)[C@@H](O)[C@H]1O` [ATP, adenosine-5′-triphosphate], the “number of capacitated murine spermatozoa” value in test [1] (1 hr incubation, both PDE11 KO and WT samples, concentration not given) is recorded as “significantly increased”. Also, the “number of capacitated sperm” value in test [1] (ATP 1.0 mM, spermatozoa obtained from PDE11 KO mice only) is “significantly increased”; in test [1] (ATP 2.5 mM, 1 hr incubation, all murine spermatozoa samples (PDE11 KO and WT)) it was “significantly increased”.

In general, IC50 refers to the concentration that inhibits the measured activity by half. With `CCCc1nn(C)c2c(=O)[nH]c(-c3cc(S(=O)(=O)N4CCN(C)CC4)ccc3OCC)nc12` [Sildenafil, sildenafil], the IC50 in test [2] stood at 19.7 µM.

Turning to `O=C(O)C1CCN(c2nc(NCc3ccc4c(c3)OCO4)c3cc(Cl)ccc3n2)CC1` [UK-227,786 (E4021), 1-[4-[(1,3-benzodioxol-5-ylmethyl)amino]-6-chloro-2-quinazolinyl]-4-piperidinecarboxylic acid, monohydrochloride], the results for the IC50 in test [3], in test [2] and in test [4] were 4.7 µM, more than 100 µM and more than 100 µM, respectively.

On to `CN1CC(=O)N2[C@H](c3ccc4c(c3)OCO4)c3[nH]c4ccccc4c3C[C@@H]2C1=O` [UK-336,017 (IC351), (6R, 12aR)-6-(1,3-benzodioxol-5-yl)-2,3,6,7,12,12a-hexahydro-2-methyl-pyrazino[1′,2′:1,6]pyrido[3,4-b]indole-1,4-dione], for which the IC50 in test [2] and in test [4] was more than 100 µM each time.
